Twelve compounds from ChEMBL document CHEMBL3091339 (J Med Chem, 2013) can be followed below.

Calls of active or inactive are those of the source.

In series [1] the test system is Mus musculus. The series can be described thus: Neurotoxicity in CF-1 mouse at 250 mg/kg, po by rotarod test. Format: toxicity, organism-based. On the set-up: dose 250 mg/kg, route oral. The following applies: in vivo. For orientation: In the rotarod test animals must keep their balance on a rotating rod.
Series [2] has as its system Mus musculus. The series can be described thus: Anticonvulsant activity in CD-1 mouse assessed as protection against maximal electroshock-induced tonic extension of hind limbs at 300 mg/kg, ip after 0.5 hrs. Format: functional, organism-based. On the set-up: dose 300 mg/kg. To be noted: Hindlimb.
For series [3], the species on record is Rattus norvegicus. The series can be described thus: Toxicity in Sprague-Dawley rat assessed as ataxia by Irwin test. The format is organism-based. The following applies: in vivo.
Series [4] relates to Mus musculus. The series can be described thus: Anticonvulsant activity in CD-1 mouse assessed as protection against maximal electroshock-induced tonic extension of hind limbs at 100 mg/kg, po after 0.5 hrs. The format is functional, organism-based. Also on record: dose 100 mg/kg. The following applies: Hindlimb.
The species entered for series [5] is Mus musculus. The series can be described thus: animal or person. To be noted: CF-1, Hindlimb, po, 1 h.
Description: Anticonvulsant activity in po dosed CF-1 mouse assessed as protection against maximal electroshock-induced tonic extension of hind limbs measured at 1 hr
Series [6] addresses Carbonic anhydrase 2 (Homo sapiens, UniProt P00918).
Description: Inhibition of human carbonic anhydrase 2 by CO2 hydration assay
Series [7] deals with Mus musculus. The series can be described thus: Neurotoxicity in CF-1 mouse at 150 mg/kg, po by rotarod test. To be noted: in vivo. Format: toxicity, organism-based. On the set-up: dose 150 mg/kg, route oral.
The subject of series [8] is Mus musculus. The series can be described thus: Anticonvulsant activity in CD-1 mouse assessed as protection against maximal electroshock-induced tonic extension of hind limbs at 100 mg/kg, po after 2 hrs. On the set-up: dose 100 mg/kg. To be noted: Hindlimb. Format: functional, organism-based. On the technique in general: Protection in the maximal electroshock model is a classic sign of anticonvulsant action.

The test system of series [9] is Rattus norvegicus. The series can be described thus: Anticonvulsant activity in ip dosed Sprague-Dawley rat hippocampal kindling model assessed as suppression of seizure activity treated 15 for mins post suprathreshold-stimulation. To be noted: Hippocampus. Format: functional, organism-based.
In series [10] the test system is Rattus norvegicus. The series can be described thus: Anticonvulsant activity in Sprague-Dawley rat hippocampal kindling model assessed as complete absence of seizure activity at >300 mg/kg, ip treated 15 for mins post suprathreshold-stimulation. The format is functional, organism-based. To be noted: Hippocampus.
For series [11], the system named is Mus musculus. The series can be described thus: Anticonvulsant activity in CD-1 mouse assessed as protection against maximal electroshock-induced tonic extension of hind limbs at 300 mg/kg, po after 0.5 hrs. The format is functional, organism-based. On the set-up: dose 300 mg/kg. To be noted: Hindlimb.
For series [12], the system named is Mus musculus. The series can be described thus: Anticonvulsant activity in CD-1 mouse assessed as protection against maximal electroshock-induced tonic extension of hind limbs at 300 mg/kg, po after 2 hrs. Also on record: dose 300 mg/kg. To be noted: Hindlimb. Format: functional, organism-based.
Series [13] concerns Rattus norvegicus. The series can be described thus: Anticonvulsant activity in Sprague-Dawley rat hippocampal kindling model assessed as reduction in global seizures at >26 mg/kg, ip treated 15 for mins post suprathreshold-stimulation. To be noted: Hippocampus. Format: functional, organism-based.
Series [14] concerns the target Sodium channel protein type 2 subunit alpha (Rattus norvegicus) (UniProt P04775). Format: cell-based. To be noted: CHL1610.

Sequence of Sodium channel protein type 2 subunit alpha (Rattus norvegicus) (P04775 whole entry, looked up): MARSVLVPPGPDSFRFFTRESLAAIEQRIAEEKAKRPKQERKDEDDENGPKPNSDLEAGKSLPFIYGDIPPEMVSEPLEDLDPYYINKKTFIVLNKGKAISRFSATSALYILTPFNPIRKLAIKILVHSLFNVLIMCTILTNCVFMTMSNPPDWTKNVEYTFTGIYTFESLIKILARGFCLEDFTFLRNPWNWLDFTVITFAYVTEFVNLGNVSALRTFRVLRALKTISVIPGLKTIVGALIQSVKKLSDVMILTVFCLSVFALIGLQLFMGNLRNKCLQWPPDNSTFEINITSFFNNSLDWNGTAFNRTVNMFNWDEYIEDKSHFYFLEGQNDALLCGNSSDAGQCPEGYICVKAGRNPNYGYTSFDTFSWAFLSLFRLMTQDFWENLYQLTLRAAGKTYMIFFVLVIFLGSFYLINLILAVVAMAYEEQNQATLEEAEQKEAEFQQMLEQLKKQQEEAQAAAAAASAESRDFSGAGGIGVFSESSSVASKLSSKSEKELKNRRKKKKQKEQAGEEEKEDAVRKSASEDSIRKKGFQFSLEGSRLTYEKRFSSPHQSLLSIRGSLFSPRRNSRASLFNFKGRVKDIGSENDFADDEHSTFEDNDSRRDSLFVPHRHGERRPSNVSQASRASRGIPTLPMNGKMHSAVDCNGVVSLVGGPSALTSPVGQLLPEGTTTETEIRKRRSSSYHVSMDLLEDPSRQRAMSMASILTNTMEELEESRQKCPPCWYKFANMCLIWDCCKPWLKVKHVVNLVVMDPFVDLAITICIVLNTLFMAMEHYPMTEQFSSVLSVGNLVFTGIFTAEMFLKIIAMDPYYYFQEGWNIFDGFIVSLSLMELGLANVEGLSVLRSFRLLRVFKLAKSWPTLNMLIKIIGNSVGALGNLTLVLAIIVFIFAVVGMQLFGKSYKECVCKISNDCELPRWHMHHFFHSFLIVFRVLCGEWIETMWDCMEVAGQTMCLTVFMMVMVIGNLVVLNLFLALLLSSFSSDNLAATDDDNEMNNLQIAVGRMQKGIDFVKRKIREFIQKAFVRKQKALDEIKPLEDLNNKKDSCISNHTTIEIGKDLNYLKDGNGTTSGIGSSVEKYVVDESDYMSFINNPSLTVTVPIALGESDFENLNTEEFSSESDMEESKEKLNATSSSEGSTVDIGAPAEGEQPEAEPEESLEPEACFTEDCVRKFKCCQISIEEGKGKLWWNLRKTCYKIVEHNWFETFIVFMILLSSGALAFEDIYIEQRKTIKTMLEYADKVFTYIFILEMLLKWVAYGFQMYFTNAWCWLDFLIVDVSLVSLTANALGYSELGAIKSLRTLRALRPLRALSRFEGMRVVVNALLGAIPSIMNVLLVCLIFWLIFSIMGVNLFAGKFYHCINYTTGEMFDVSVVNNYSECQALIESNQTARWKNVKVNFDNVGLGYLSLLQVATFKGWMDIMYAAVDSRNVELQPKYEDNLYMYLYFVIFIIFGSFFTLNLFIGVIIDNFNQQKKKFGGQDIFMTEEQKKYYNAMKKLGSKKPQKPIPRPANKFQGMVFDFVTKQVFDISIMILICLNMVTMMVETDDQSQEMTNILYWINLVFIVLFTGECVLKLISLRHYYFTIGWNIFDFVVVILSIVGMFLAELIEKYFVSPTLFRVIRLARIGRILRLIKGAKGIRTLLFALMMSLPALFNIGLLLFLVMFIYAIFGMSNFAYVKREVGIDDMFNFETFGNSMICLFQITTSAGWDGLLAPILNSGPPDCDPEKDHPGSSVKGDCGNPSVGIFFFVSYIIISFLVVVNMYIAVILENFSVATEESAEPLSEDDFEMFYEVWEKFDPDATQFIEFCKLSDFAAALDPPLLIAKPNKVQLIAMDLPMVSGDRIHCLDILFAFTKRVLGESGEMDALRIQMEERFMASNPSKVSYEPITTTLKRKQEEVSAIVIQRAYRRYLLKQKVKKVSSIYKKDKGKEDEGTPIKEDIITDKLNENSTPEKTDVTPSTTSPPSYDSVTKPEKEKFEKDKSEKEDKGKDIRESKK

As to `NS(=O)(=O)NC[C@H]1COc2ccccc2O1`, the Activity entry in series [1] is listed as “Non-toxic”. Besides, the result in series [2] was Active.
On to `NS(=O)(=O)NC[C@@H]1COc2ccccc2O1`, for which the Activity entry in series [3] was “Toxic”. Besides, in series [2], the outcome was Active.
In general, ED50 refers to the dose that gives a 50% effect, or the effect in half of the subjects. A higher ED50 goes with weaker potency. By IC50 is commonly meant the point on the concentration scale where inhibition reaches its midpoint. Low values mean inhibition by little substance, high ones a need for much substance. In the case of `NS(=O)(=O)NC[C@H]1COc2c(Cl)cccc2O1`, the outcome in series [4] was inactive. For the same compound, the 50% effect level in series [5] (ED50) was put at a dose of 124 mg/kg. The compound further returned an IC50 in [6] of 220 µM.
Take `NS(=O)(=O)NC[C@H]1COc2ccc(Cl)cc2O1`: the result in series [4] was inactive. Also, the Activity entry in series [7] is given as “Non-toxic”.
Turning to `COc1cccc2c1O[C@@H](CNS(N)(=O)=O)CO2`, the result in [8] and in [4] was inactive. The IC50 in series [6] came out at 300 µM.
With `CCC1(C)CC(=O)NC1=O` (centres undefined), the result in [9] was inactive.
`CCCC(CCC)C(=O)O`: the outcome in series [10] and in series [9] was Active.
For the compound `Cc1ccc2c(c1)O[C@@H](CNS(N)(=O)=O)CO2`, the outcome in series [11] and in series [12] was inactive.
With `NC(=O)N1c2ccccc2C=Cc2ccccc21`, the result in [9] and in series [13] was Active.
With `NCC1(CC(=O)O)CCCCC1`, in series [14], the outcome was inactive.
With `NS(=O)(=O)NCC1CCc2ccccc2O1` (centres undefined), the result in series [11] was Active. Also, the outcome in series [8] was inactive.
Consider `NS(=O)(=O)NCC1Oc2ccc(Cl)cc2O1` (centres undefined), for which the result in series [8] and in [4] was inactive.
